{
  "source": "paper PMC12174747",
  "about": "“Ligand Screening and Discovery Using Cocktail Soaking and Automated Microcrystal Electron Diffraction” (Chemmedchem, 2025)",
  "key": {"thermolysin": {"biological_target": "T1, thermolysin (Bacillus thermoproteolyticus, UniProt P00800)", "T1 construct": "gene npr", "T1 sequence (P00800 233-548)": "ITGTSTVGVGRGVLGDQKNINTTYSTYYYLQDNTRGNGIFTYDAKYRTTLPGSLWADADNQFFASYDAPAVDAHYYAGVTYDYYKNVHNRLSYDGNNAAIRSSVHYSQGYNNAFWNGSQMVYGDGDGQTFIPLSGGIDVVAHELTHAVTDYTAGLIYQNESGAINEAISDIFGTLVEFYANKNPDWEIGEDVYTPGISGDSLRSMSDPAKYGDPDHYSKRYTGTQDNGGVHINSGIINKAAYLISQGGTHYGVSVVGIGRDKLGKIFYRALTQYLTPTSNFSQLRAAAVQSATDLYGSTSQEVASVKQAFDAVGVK", "test": "MicroED crystal structure (cocktail and individual soaking) and microscale thermophoresis", "format": "binding"}, "proteinase K": {"biological_target": "T2, proteinase K (Parengyodontium album, UniProt P06873)", "T2 construct": "gene PROK", "T2 sequence (P06873 106-384)": "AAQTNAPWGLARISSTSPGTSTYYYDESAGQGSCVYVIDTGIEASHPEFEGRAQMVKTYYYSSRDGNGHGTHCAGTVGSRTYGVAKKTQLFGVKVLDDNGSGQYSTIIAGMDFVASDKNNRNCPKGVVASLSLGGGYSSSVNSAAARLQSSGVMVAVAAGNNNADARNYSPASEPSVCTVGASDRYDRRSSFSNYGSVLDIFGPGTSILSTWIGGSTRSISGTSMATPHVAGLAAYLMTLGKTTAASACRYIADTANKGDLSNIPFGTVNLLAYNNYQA", "test": "MicroED crystal structure (cocktail and individual soaking) and microscale thermophoresis", "format": "binding"}},
  "note": "Counter-ions that a name gives are not always drawn. Like-named read-outs stand apart in the source and are kept apart here.",
  "data": [
    {"compound": "CC(C)C[C@H](NP(=O)(O)O[C@@H]1O[C@@H](C)[C@H](O)[C@@H](O)[C@H]1O)C(=O)N[C@@H](Cc1c[nH]c2ccccc12)C(=O)O", "note": "[compound 1, phosphoramidon disodium salt]", "values": [
      {"measurement": "Kd", "setting": "thermolysin", "value": 0.345, "unit": "µM"}
    ]},
    {"compound": "O=C(O)CNC(=O)C(CS)Cc1ccccc1", "note": "(stereo not drawn) [compound 2, thiorphan]", "values": [
      {"measurement": "Kd", "setting": "thermolysin; read-out: Kd", "value": 4, "unit": "µM"}
    ]},
    {"compound": "benzenesulfonyl fluoride hydrochloride [compound 4]", "values": [
      {"measurement": "Kd", "setting": "proteinase K", "value": 260, "unit": "µM"}
    ]}
  ]
}
